As usually defined, the EC50 is the concentration needed to bring the measured effect to its halfway point. The term IC50 denotes the midpoint of a concentration-inhibition curve.

One experiment concerns TNFα. The experiment in a line: Cot Monocyte TNFα Cell Based Assay.
A further experiment addresses Human Cot (Homo sapiens (Human), UniProt P41279). Briefly: High Throughput Cot Biochemical Assay.
Setting [1] is: Homo sapiens, Monocyte, read-out: EC50 TNF, LPS-stimulated human monocytes, TNFα.
Where [2] appears, read: IC50 HTRF, Cot HTRF (TR-FRET) biochemical assay.
Where [3] appears, read: Homo sapiens, Monocyte, read-out: EC50 TNF, LPS-stimulated human monocytes, TNFα TR-FRET.
Where [4] appears, read: IC50 HTRF, Cot HTRF (TR-FRET KinEASE) biochemical assay, 400 μM ATP.

Like-named read-outs stand apart in the source and are kept apart here.

Human Cot, sequence (P41279 30-397): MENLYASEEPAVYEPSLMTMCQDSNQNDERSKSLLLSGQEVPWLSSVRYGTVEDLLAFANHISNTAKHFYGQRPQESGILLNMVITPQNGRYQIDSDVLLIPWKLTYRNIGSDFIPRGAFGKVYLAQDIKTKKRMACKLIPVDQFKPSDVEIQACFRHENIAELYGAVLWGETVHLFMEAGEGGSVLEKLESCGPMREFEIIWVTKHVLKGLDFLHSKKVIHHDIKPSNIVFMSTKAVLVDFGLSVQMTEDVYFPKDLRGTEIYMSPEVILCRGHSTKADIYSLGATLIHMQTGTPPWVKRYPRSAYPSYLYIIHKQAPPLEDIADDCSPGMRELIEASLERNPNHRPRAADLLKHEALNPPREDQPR

Turning to `CC[C@@H](Nc1c(C#N)cnc2c(Cl)cc(N[C@@H](c3cccnc3)c3cn(CC(F)(F)F)nn3)cc12)c1ccccc1` [Example 195, 8-chloro-4-(((R)-1-phenylpropyl)amino)-6-(((S)-pyridin-3-yl(1-(2,2,2-trifluoroethyl)-1H-1,2,3-triazol-4-yl)methyl)amino)quinoline-3-carbonitrile], in the experiment on TNFα (setting [1]), the EC50 came to 132 nM. This compound also displayed an IC50 against Human Cot (setting [2]) of 4 nM.
In the case of `Cc1nc(F)ccc1[C@H](Nc1cc(C#N)c2ncc(C#N)c(NCC(C)(C)C)c2c1)c1cn(C2(C(N)=O)CCC2)nn1` [Example 494, (S)-1-(4-(((3,8-dicyano-4-(neopentyl-amino)quinolin-6-yl)amino)(6-fluoro-2-methylpyridin-3-yl)methyl)-1H-1,2,3-triazol-1-yl)cyclobutane-1-carboxamide], the EC50 in the experiment with TNFα (setting [1]) came to 444 nM. Also, the midpoint of inhibition at Human Cot (setting [2]), the IC50, lay at 1 nM.
`Cc1nc(F)ccc1[C@H](Nc1cc(C#N)c2ncc(C#N)c(NCC(C)(C)C)c2c1)c1cn([C@@H](C)CF)nn1` [Example 623, 6-(((S)-(6-fluoro-2-methylpyridin-3-yl)(1-((S)-1-fluoropropan-2-yl)-1H-1,2,3-triazol-4-yl)methyl)amino)-4-(neopentylamino)quinoline-3,8-dicarbonitrile]: in the experiment on TNFα (setting [1]), the concentration for a half-maximal effect (EC50) came out at 27 nM. Also, the IC50 against Human Cot (setting [2]) stood at 1 nM.
For `CC(C)(C)N1CCC(n2cc([C@@H](Nc3cc(Cl)c4ncc(C#N)c(Nc5ccc(F)c(F)c5)c4c3)c3cccnc3)nn2)CC1` [Example 285, (S)-6-(((1-(1-(tert-butyl)piperidin-4-yl)-1H-1,2,3-triazol-4-yl)(pyridin-3-yl)methyl)amino)-8-chloro-4-((3,4-difluorophenyl)amino)quinoline-3-carbonitrile] the same measures were 219 nM and 8 nM.
For `Cc1ncccc1[C@H](Nc1cc(Cl)c2ncc(C#N)c(Nc3cnc(F)c(F)c3)c2c1)c1cn(C2CC2)nn1` [Example 150, (S)-8-chloro-6-(((1-cyclopropyl-1H-1,2,3-triazol-4-yl)(2-methylpyridin-3-yl)methyl)amino)-4-((5,6-difluoropyridin-3-yl)amino)quinoline-3-carbonitrile] the same measures were 154 nM and 4 nM.
In the case of `Cn1nccc1[C@H](Nc1cc(C#N)c2ncc(C#N)c(NCC(C)(C)C)c2c1)c1cn(C2(C(F)(F)F)CC2)nn1` [Example 678, (S)-6-(((1-methyl-1H-pyrazol-5-yl)(1-(1-(trifluoromethyl)cyclopropyl)-1H-1,2,3-triazol-4-yl)methyl)amino)-4-(neopentylamino)quinoline-3,8-dicarbonitrile], in the experiment with TNFα (setting [1]), the concentration giving a half-maximal response (EC50) was 131 nM. This compound registered an IC50 on Human Cot (setting [2]) of 5 nM.
For `Cc1nc(F)ccc1[C@H](Nc1cc(Cl)c2ncc(C#N)c(NCC(C)(C)C)c2c1)c1cn(C(CF)CF)nn1` [Example 762, (S)-8-chloro-6-(((1-(1,3-difluoropropan-2-yl)-1H-1,2,3-triazol-4-yl)(6-fluoro-2-methylpyridin-3-yl)methyl)amino)-4-(neopentylamino)quinoline-3-carbonitrile] the same measures were 50 nM and 3 nM.
The like results for `CCc1nc(F)ccc1[C@H](Nc1cc(C#N)c2ncc(C#N)c(NCC(C)(C)C)c2c1)c1cn(C2(C(F)(F)F)CC2)nn1` [Example 598, (S)-6-(((2-ethyl-6-fluoropyridin-3-yl)(1-(1-(trifluoromethyl)cyclopropyl)-1H-1,2,3-triazol-4-yl)methyl)amino)-4-(neopentylamino)-quinoline-3,8-dicarbonitrile] were, in that order, 198 nM and 5 nM.
For `CC(C)(C)CNc1c(C#N)cnc2c(C#N)cc(N[C@H](c3cn(C4(C#N)CC4)nn3)c3cccc4ncccc34)cc12` [Example 577, (S)-6-(((1-(1-cyanocyclopropyl)-1H-1,2,3-triazol-4-yl)(quinolin-5-yl)methyl)amino)-4-(neopentylamino)-quinoline-3,8-dicarbonitrile] the same measures were 49 nM and 1 nM.
Take `N#Cc1cnc2c(Cl)cc(N[C@@H](c3cccnc3)c3c[nH]nn3)cc2c1N[C@@H](CCO)c1ccccc1` [Example 178, 8-chloro-4-(((S)-3-hydroxy-1-phenylpropyl)amino)-6-(((S)-pyridin-3-yl(1H-1,2,3-triazol-4-yl)methyl)amino)quinoline-3-carbonitrile]: in the experiment on TNFα (setting [1]), the EC50 turned out to be 931 nM. Also, the IC50 against Human Cot (setting [2]) is 7 nM.
For `CCC(F)(F)Cn1cc([C@@H](Nc2cc(C#N)c3ncc(C#N)c(NCC(C)(C)C)c3c2)c2ccc(F)nc2C)nn1` [Example 837, (S)-6-(((1-(2,2-difluorobutyl)-1H-1,2,3-triazol-4-yl)(6-fluoro-2-methylpyridin-3-yl)methyl)amino)-4-(neopentylamino)quinoline-3,8-dicarbonitrile], the 50% effective concentration (EC50) with TNFα (setting [3]) turned out to be 121 nM. On Human Cot (setting [4]), the half-maximal inhibitory concentration (IC50) worked out at 7 nM.
Turning to `COc1nccc2c([C@H](Nc3cc(Cl)c4ncc(C#N)c(NCC(C)(C)C)c4c3)c3nnn(C4(C(F)F)CC4)c3F)cccc12` [Example 923, (S)-8-chloro-6-(((1-(1-(difluoromethyl)cyclopropyl)-5-fluoro-1H-1,2,3-triazol-4-yl)(1-methoxylsoquinolin-5-yl)methyl)amino)-4-(neopentylamino)quinoline-3-carbonitrile], the 50% effective concentration (EC50) in the experiment on TNFα (read-out: EC50 TNF, LPS-stimulated human monocytes, TNFα TR-FRET) worked out at 258 nM. In addition, the concentration for half-maximal inhibition (IC50) at Human Cot (read-out: IC50 HTRF, Cot HTRF (TR-FRET KinEASE) biochemical assay, 400 μM ATP) stood at 16 nM.
Consider `[2H]C([2H])(Nc1c(C#N)cnc2c(Cl)cc(N[C@H](c3cn(C4(C(F)F)CC4)nn3)c3ccc(F)nc3C)cc12)C(C)(C)C` [Example 501, (S)-8-chloro-6-(((1-(1-(difluoromethyl)-cyclopropyl)-1H-1,2,3-triazol-4-yl)(6-fluoro-2-methylpyridin-3-yl)methyl)amino)-4-((2,2-dimethylpropyl-1,1-d2)amino)-quinoline-3-carbonitrile], for which, in the experiment with TNFα (setting [1]), the EC50 is 55 nM. Further, the IC50 on Human Cot (setting [2]) came to 3 nM.
For the compound `Cc1nc(F)ccc1[C@H](Nc1cc(C#N)c2ncc(C#N)c(NCC(C)(C)C)c2c1)c1nnn([C@@H](C)CF)c1F` [Example 854, 6-(((S)-(5-fluoro-1-((S)-1-fluoropropan-2-yl)-1H-1,2,3-triazol-4-yl)(6-fluoro-2-methylpyridin-3-yl)methyl)amino)-4-(neopentylamino)quinoline-3,8-dicarbonitrile], in the experiment on TNFα (setting [3]), the EC50 is 17 nM. For the same compound, on Human Cot (setting [4]), the half-maximal inhibitory concentration (IC50) was determined as 4 nM.
Take `[2H]C([2H])([2H])C([2H])([2H])[C@H](Nc1c(C#N)cnc2c(Cl)cc(N[C@@]([2H])(c3ccc(F)nc3)c3cn(C4CC4)nn3)cc12)c1ccccc1` [Example 107, 8-chloro-6-(((S)-(1-cyclopropyl-1H-1,2,3-triazol-4-yl)(6-fluoropyridin-3-yl)methyl-d)amino)-4-(((S)-1-phenyl-propyl-2,2,3,3,3-d5)amino)quinoline-3-carbonitrile]: the EC50 with TNFα (setting [1]) was above 10000 nM. On Human Cot (setting [2]), this compound registered a 50% inhibitory concentration (IC50) of 182 nM.
The like results for `Cn1nccc1[C@H](Nc1cc(Cl)c2ncc(C#N)c(Nc3ccc(F)c(Cl)c3)c2c1)c1cn(C2CCN(C(C)(C)C)CC2)nn1` [Example 305, (S)-6-(((1-(1-(tert-butyl)piperidin-4-yl)-1H-1,2,3-triazol-4-yl)(1-methyl-1H-pyrazol-5-yl)methyl)amino)-8-chloro-4-((3-chloro-4-fluorophenyl)amino)quinoline-3-carbonitrile] were, in that order, 84 nM and 3 nM.

The record behind these values is patent US11066414B2, “Cot modulators and methods of use thereof” (Gilead Sciences, Inc., priority 2015, dated 2021).
